ChEMBL document CHEMBL4507282, “Data for DCP probe BI-1950” (2021)

Experiments:
[1] = test system: Tyrosine-protein kinase ABL1 (Homo sapiens), P00519 [Q252H]; conditions: Compound concentration 1000.0 nM
[2] = target: Atypical kinase COQ8B, mitochondrial (Homo sapiens) (UniProt Q96D53); conditions: Compound concentration 1000.0 nM
[3] = target: Cyclin-dependent kinase-like 1 (Homo sapiens) (UniProt Q00532); conditions: Compound concentration 1000.0 nM
[4] = target: Serine/threonine-protein kinase Chk1 (Homo sapiens) (UniProt O14757); conditions: Compound concentration 1000.0 nM
[5] = target: Citron Rho-interacting kinase (Homo sapiens) (UniProt O14578); conditions: Compound concentration 1000.0 nM
[6] = target: Casein kinase II subunit alpha (Homo sapiens) (UniProt P68400); conditions: Compound concentration 1000.0 nM
[7] = target: Megakaryocyte-associated tyrosine-protein kinase (Homo sapiens) (UniProt P42679); conditions: Compound concentration 1000.0 nM
[8] = target: Serine/threonine-protein kinase DCLK2 (Homo sapiens) (UniProt Q8N568); conditions: Compound concentration 1000.0 nM
[9] = target: Mitogen-activated protein kinase kinase kinase 12 (Homo sapiens) (UniProt Q12852); conditions: Compound concentration 1000.0 nM
[10] = target: Ephrin type-B receptor 3 (Homo sapiens) (UniProt P54753); conditions: Compound concentration 1000.0 nM
[11] = target: Mitogen-activated protein kinase 4 (Homo sapiens) (UniProt P31152); conditions: Compound concentration 1000.0 nM
[12] = test system: Receptor-type tyrosine-protein kinase FLT3 (Homo sapiens), P36888 [K663Q]; conditions: Compound concentration 1000.0 nM
[13] = target: Tyrosine-protein kinase Fyn (Homo sapiens) (UniProt P06241); conditions: Compound concentration 1000.0 nM
[14] = target: Glycogen synthase kinase-3 alpha (Homo sapiens) (UniProt P49840); conditions: Compound concentration 1000.0 nM
[15] = target: Glycogen synthase kinase-3 beta (Homo sapiens) (UniProt P49841); conditions: Compound concentration 1000.0 nM
[16] = target: Tyrosine-protein kinase JAK1 (Homo sapiens) (UniProt P23458); conditions: Compound concentration 1000.0 nM
[17] = target: Mitogen-activated protein kinase kinase kinase kinase 3 (Homo sapiens) (UniProt Q8IVH8); conditions: Compound concentration 1000.0 nM
[18] = target: Dual specificity mitogen-activated protein kinase kinase 2 (Homo sapiens) (UniProt P36507); conditions: Compound concentration 1000.0 nM
[19] = target: Dual specificity mitogen-activated protein kinase kinase 7 (Homo sapiens) (UniProt O14733); conditions: Compound concentration 1000.0 nM
[20] = target: Mitogen-activated protein kinase kinase kinase 10 (Homo sapiens) (UniProt Q02779); conditions: Compound concentration 1000.0 nM
[21] = target: Macrophage-stimulating protein receptor (Homo sapiens) (UniProt Q04912); conditions: Compound concentration 1000.0 nM
[22] = target: Serine/threonine-protein kinase 26 (Homo sapiens) (UniProt Q9P289); conditions: Compound concentration 1000.0 nM
[23] = target: Serine/threonine-protein kinase mTOR (Homo sapiens) (UniProt P42345); conditions: Compound concentration 1000.0 nM
[24] = target: Serine/threonine-protein kinase 38-like (Homo sapiens) (UniProt Q9Y2H1); conditions: Compound concentration 1000.0 nM
[25] = target: Phosphatidylinositol 3-kinase C2 domain-containing subunit gamma (Homo sapiens) (UniProt O75747); conditions: Compound concentration 1000.0 nM
[26] = target: Phosphatidylinositol 4,5-bisphosphate 3-kinase catalytic subunit gamma isoform (Homo sapiens) (UniProt P48736); conditions: Compound concentration 1000.0 nM
[27] = target: Phosphatidylinositol 5-phosphate 4-kinase type-2 gamma (Homo sapiens) (UniProt Q8TBX8); conditions: Compound concentration 1000.0 nM
[28] = target: cGMP-dependent protein kinase 2 (Homo sapiens) (UniProt Q13237); conditions: Compound concentration 1000.0 nM
[29] = target: Proto-oncogene tyrosine-protein kinase ROS (Homo sapiens) (UniProt P08922); conditions: Compound concentration 1000.0 nM
[30] = target: Ribosomal protein S6 kinase alpha-2 (Homo sapiens) (UniProt Q15349); conditions: Compound concentration 1000.0 nM
[31] = target: NUAK family SNF1-like kinase 2 (Homo sapiens) (UniProt Q9H093); conditions: Compound concentration 1000.0 nM
[32] = target: Proto-oncogene tyrosine-protein kinase Src (Homo sapiens) (UniProt P12931); conditions: Compound concentration 1000.0 nM
[33] = target: Serine/threonine-protein kinase 35 (Homo sapiens) (UniProt Q8TDR2); conditions: Compound concentration 1000.0 nM
[34] = target: Serine/threonine-protein kinase TAO1 (Homo sapiens) (UniProt Q7L7X3); conditions: Compound concentration 1000.0 nM
[35] = target: Tyrosine-protein kinase Tec (Homo sapiens) (UniProt P42680); conditions: Compound concentration 1000.0 nM
[36] = target: Dual specificity testis-specific protein kinase 1 (Homo sapiens) (UniProt Q15569); conditions: Compound concentration 1000.0 nM
[37] = target: Serine/threonine-protein kinase WNK2 (Homo sapiens) (UniProt Q9Y3S1); conditions: Compound concentration 1000.0 nM
[38] = target: T1, 5-hydroxytryptamine receptor 3A (Homo sapiens) (UniProt P46098); conditions: Compound concentration 10.0 uM
T1 sequence (whole entry): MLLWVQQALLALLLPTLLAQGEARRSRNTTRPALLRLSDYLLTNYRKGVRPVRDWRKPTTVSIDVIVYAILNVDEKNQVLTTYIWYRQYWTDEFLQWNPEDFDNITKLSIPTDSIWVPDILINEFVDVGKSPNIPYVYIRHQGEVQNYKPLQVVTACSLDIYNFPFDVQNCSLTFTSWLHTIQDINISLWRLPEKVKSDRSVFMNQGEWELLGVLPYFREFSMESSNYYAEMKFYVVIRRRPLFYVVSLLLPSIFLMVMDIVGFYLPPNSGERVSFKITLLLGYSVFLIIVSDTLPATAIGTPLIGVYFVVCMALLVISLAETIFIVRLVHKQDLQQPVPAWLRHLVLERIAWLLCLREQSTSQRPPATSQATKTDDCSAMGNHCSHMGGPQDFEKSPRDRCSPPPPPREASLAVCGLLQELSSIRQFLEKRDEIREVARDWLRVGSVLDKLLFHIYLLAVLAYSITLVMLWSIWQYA

[39] = target: Delta-type opioid receptor (Homo sapiens) (UniProt P41143); conditions: Compound concentration 10.0 uM

Mitogen-activated protein kinase kinase kinase 12 (Homo sapiens), sequence (Q12852 whole entry): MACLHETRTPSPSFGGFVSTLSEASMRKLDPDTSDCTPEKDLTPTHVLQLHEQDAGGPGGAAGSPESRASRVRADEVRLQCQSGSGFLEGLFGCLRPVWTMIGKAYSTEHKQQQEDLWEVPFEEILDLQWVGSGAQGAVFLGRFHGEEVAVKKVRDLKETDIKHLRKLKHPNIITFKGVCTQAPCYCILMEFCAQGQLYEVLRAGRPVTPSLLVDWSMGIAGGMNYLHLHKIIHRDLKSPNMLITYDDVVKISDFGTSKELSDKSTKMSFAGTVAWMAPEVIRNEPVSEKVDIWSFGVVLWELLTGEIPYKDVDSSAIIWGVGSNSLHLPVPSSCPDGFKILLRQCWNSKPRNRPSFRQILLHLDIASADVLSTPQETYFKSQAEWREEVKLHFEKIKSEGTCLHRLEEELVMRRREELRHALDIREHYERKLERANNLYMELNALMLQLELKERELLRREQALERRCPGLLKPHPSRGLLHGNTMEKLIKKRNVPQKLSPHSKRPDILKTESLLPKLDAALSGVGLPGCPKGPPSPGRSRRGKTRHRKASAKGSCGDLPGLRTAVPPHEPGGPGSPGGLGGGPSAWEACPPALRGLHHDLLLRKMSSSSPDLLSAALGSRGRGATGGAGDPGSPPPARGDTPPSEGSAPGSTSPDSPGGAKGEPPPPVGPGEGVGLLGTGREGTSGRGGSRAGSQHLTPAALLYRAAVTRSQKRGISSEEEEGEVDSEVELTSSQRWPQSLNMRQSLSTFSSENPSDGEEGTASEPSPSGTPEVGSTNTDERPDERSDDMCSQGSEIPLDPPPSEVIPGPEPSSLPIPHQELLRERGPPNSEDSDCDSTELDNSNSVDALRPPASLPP
Mitogen-activated protein kinase kinase kinase 10 (Homo sapiens), sequence (Q02779 whole entry, looked up): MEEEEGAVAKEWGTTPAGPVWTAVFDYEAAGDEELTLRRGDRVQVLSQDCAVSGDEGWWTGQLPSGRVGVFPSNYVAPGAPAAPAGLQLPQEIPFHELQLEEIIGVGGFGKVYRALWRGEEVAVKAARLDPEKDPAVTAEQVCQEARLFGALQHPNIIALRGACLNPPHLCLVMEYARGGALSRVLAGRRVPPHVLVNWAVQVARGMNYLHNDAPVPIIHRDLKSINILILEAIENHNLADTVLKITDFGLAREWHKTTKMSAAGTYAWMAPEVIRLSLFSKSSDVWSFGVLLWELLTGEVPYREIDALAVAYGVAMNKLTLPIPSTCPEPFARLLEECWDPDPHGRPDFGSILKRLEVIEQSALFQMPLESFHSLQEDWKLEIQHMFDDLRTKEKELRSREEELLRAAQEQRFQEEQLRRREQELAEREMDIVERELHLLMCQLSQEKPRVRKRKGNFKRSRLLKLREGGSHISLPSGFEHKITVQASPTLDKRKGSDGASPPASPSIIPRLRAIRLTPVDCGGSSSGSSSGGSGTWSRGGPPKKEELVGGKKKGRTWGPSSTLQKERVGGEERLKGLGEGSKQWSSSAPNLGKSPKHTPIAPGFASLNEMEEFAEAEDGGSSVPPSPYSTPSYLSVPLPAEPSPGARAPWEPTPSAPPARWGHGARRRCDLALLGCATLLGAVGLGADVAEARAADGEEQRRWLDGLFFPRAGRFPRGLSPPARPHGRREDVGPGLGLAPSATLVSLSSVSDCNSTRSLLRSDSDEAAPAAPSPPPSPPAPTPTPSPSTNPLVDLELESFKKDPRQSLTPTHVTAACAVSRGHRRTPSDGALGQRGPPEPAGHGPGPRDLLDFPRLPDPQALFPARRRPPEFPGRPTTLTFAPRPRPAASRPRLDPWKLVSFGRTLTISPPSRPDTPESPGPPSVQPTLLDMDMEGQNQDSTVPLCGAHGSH
Serine/threonine-protein kinase TAO1 (Homo sapiens), sequence (Q7L7X3 whole entry): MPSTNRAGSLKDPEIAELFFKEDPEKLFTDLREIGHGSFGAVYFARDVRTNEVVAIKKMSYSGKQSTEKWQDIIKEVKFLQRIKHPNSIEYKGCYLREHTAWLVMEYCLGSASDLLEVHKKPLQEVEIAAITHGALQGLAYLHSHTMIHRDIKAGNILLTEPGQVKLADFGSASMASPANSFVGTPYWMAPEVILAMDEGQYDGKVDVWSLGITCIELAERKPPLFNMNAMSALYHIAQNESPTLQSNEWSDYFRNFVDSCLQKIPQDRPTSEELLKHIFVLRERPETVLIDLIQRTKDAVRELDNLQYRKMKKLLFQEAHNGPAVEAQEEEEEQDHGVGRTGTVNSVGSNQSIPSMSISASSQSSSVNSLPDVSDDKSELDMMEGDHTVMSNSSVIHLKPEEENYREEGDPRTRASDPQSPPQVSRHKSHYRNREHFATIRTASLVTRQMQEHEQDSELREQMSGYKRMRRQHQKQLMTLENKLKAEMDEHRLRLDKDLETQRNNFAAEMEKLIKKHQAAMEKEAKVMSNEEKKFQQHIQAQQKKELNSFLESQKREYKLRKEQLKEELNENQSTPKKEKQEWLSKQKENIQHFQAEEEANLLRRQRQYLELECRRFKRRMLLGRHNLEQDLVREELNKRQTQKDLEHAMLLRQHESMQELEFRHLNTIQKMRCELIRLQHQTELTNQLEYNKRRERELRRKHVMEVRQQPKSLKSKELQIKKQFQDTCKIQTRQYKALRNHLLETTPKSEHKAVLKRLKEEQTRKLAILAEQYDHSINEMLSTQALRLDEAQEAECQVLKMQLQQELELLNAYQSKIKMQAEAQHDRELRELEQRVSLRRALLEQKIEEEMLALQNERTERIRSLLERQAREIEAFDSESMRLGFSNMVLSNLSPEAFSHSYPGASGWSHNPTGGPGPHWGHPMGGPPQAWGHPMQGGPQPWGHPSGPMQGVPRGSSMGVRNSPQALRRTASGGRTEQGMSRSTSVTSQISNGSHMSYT
Dual specificity mitogen-activated protein kinase kinase 7 (Homo sapiens), sequence (O14733 whole entry): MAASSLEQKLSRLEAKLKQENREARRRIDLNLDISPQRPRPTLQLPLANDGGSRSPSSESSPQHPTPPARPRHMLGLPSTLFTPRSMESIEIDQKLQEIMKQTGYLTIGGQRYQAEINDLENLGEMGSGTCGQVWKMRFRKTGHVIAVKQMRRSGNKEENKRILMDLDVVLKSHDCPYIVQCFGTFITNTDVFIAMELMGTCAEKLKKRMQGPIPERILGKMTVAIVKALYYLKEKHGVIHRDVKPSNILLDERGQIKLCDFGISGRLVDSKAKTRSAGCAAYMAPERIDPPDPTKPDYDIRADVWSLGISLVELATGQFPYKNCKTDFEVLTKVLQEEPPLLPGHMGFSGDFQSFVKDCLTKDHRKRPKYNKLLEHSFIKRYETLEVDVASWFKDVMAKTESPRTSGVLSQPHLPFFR
Tyrosine-protein kinase JAK1 (Homo sapiens), sequence (P23458 whole entry): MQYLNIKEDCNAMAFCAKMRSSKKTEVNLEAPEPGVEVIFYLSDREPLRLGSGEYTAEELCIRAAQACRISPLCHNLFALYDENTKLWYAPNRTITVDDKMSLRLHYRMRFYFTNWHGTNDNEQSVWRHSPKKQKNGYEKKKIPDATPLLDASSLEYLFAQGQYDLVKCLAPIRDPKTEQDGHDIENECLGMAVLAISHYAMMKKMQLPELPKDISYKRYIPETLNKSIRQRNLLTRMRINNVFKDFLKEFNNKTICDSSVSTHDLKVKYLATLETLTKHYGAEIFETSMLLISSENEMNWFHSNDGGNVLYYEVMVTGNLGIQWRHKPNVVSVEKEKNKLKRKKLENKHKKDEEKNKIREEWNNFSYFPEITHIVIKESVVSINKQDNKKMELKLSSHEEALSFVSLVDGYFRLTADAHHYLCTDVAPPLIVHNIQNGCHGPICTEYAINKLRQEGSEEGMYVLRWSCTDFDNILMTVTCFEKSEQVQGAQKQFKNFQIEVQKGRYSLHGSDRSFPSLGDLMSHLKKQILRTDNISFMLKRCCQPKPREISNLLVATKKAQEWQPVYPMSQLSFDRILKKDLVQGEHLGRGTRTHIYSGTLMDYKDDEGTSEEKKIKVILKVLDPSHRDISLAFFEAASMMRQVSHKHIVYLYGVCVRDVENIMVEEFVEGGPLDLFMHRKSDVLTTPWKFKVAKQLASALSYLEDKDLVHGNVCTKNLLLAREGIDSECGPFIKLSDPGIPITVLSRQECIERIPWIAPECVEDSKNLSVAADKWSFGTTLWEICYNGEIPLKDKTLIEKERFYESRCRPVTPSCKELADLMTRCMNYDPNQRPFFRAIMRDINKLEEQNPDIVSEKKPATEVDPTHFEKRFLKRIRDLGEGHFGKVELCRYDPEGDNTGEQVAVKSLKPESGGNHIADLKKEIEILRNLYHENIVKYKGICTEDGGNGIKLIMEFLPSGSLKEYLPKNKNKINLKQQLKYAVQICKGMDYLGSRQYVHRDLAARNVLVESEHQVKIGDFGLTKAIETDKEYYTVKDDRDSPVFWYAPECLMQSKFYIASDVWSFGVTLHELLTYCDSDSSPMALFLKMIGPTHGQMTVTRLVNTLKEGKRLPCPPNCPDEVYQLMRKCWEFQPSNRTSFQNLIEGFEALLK
Glycogen synthase kinase-3 beta (Homo sapiens), sequence (P49841 whole entry, looked up): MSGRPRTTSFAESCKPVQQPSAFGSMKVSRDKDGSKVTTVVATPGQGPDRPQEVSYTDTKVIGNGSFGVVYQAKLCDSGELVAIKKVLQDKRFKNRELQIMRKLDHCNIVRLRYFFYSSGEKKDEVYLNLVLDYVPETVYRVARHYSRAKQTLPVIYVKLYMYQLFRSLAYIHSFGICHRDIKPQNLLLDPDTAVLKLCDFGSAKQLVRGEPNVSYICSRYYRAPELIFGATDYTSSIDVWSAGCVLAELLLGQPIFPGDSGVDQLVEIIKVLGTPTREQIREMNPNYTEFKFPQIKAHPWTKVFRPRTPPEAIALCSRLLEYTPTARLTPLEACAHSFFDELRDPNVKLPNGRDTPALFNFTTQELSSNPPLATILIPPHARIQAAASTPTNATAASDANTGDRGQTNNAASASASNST

SMILES	residual activity [1] [%]	residual activity [2] [%]	residual activity [3] [%]	residual activity [4] [%]	residual activity [5] [%]	residual activity [6] [%]	residual activity [7] [%]	residual activity [8] [%]	residual activity [9] [%]	residual activity [10] [%]	residual activity [11] [%]	residual activity [12] [%]	residual activity [13] [%]	residual activity [14] [%]	residual activity [15] [%]	residual activity [16] [%]	residual activity [17] [%]	residual activity [18] [%]	residual activity [19] [%]	residual activity [20] [%]	further results
C[C@H](NC(=O)c1cnc2n1[C@](C)(Cc1ccc(C#N)cc1)C(=O)N2c1cc(Cl)c(F)c(Cl)c1)C(=O)NC1(c2ccccn2)CC1 [BI 1950]	100	100	73	100	100	81	100	100	100	100	100	100	70	100	100	100	100	90	100	100	residual activity [21]: 100%; residual activity [22]: 98%; residual activity [23]: 96%; residual activity [24]: 49%; residual activity [25]: 100%; residual activity [26]: 86%; residual activity [27]: 100%; residual activity [28]: 85%; residual activity [29]: 100%; residual activity [30]: 94%; residual activity [31]: 100%; residual activity [32]: 100%; residual activity [33]: 100%; residual activity [34]: 86%; residual activity [35]: 75%; residual activity [36]: 100%; residual activity [37]: 100%; inhibition [38]: -2.51%; inhibition [39]: -0.33%
C[C@@]1(Cc2ccc(C#N)cc2)C(=O)N(c2cc(Cl)cc(Cl)c2)c2ncc(C(=O)NC3(c4nc(C5CCC5)no4)CC3)n21 [BI 9446]	100	100	100	90	100	91	100	100	100	99	100	100	89	100	100	100	78	99	100	100	residual activity [21]: 100%; residual activity [22]: 100%; residual activity [23]: 91%; residual activity [24]: 48%; residual activity [25]: 100%; residual activity [26]: 95%; residual activity [27]: 100%; residual activity [28]: 100%; residual activity [29]: 100%; residual activity [30]: 99%; residual activity [31]: 100%; residual activity [32]: 98%; residual activity [33]: 100%; residual activity [34]: 97%; residual activity [35]: 92%; residual activity [36]: 100%; residual activity [37]: 100%; inhibition [38]: 17.9%; inhibition [39]: 8.3%
